Data on 12 molecules can be found in US20090105293A1, “USE OF THIENOPYRIDONE DERIVATIVES AS AMPK ACTIVATORS AND PHARMACEUTICAL COMPOSITIONS CONTAINING THEM” (priority 2005, published 2009).

Experiment [1] has as its system Human recombinant AMPK enzyme. In words: AMPK screening assay, Delfia technology. It is filed as biochemical. Particulars: 50 mM Hepes buffer pH 7.4, 125 μM ATP, AMARAA peptide substrate, 30 min room temperature, activator concentration not given. As for the experimental part: (§1) Human recombinant AMPK enzyme was expressed in E. Coli and was reactivated in vitro by LKB1 prior to enzyme activity determination.
(§2) AMPK enzyme activities were assayed by using 2 fluorescent based technologies (AlphaScreen/Delfia) and were carried out in microtiter plates (containing 25 mM Tris/HCl buffer, pH 7.5 with 100 μM ATP/50 mM Hepes buffer, pH 7.4 with 125 μM ATP respectively) in the presence of a synthetic peptide substrate (AMARAASAAALARRR, the “AMARAA” peptide) and activators in serial dilutions. Reactions were initiated by the addition of AMPK (50-100 ng). Following mixing, the plates were incubated for 30 min at room temperature. Enzyme activity was assayed by using an anti-phosphoserine antibody to measure the quantity of phosphate incorporated into the AMARAA. Activity is expressed in % of control (basal activity): […]

Experiment [2] has as its system Human recombinant AMPK enzyme. In words: AMPK screening assay, AlphaScreen technology. It is filed as biochemical. Particulars: 25 mM Tris/HCl buffer pH 7.5, 100 μM ATP, AMARAA peptide substrate, 30 min room temperature, activator concentration not given. As to the method: as §1, §2
On the technique in general: Alpha assays give light when donor and acceptor beads are brought close together.

The subject of another experiment is ob/ob and db/db mice. Particulars: 8 day administration; both ob/ob and db/db mice; cited from earlier work.

With `CCc1cc2c(O)c(-c3ccccc3)c(=O)[nH]c2s1` [Compound 201, 2-Ethyl-4-hydroxy-5-phenyl-7H-thieno[2,3-b]pyridin-6-one], the “Delfia: AMPK activity expressed in % of control (basal activity)” value (“Delfia: AMPK activity expressed in %” for short) in experiment [1] is given as 219 % of control. In experiment [2], the “α-Screen: AMPK activity expressed in % of control (basal activity)” value (“α-Screen: AMPK activity expressed in %” for short) is 150 % of control.

Regarding `O=c1[nH]c2sc(Br)cc2c(O)c1-c1ccccc1` [Compound 203, 2-Bromo-4-hydroxy-5-phenyl-7H-thieno[2,3-b]pyridin-6-one], the “Delfia: AMPK activity expressed in %” value in experiment [1] is 271 % of control. Also, in experiment [2], the “α-Screen: AMPK activity expressed in %” value is 286 % of control.

With `CCC(C)c1c(Cl)sc2[nH]c(=O)c(-c3ccccc3)c(O)c12` (centres unmarked) [Compound 206], the “Delfia: AMPK activity expressed in %” value in experiment [1] is 164 % of control. The “α-Screen: AMPK activity expressed in %” value in experiment [2] was 269 % of control.

With `CC(C)c1csc2[nH]c(=O)c(-c3ccccc3)c(O)c12` [Compound 207, 4-Hydroxy-3-isopropyl-5-phenyl-7H-thieno[2,3-b]pyridin-6-one], the “Delfia: AMPK activity expressed in %” value in experiment [1] is listed as 169 % of control. Also, the “α-Screen: AMPK activity expressed in %” value in experiment [2] was 131 % of control.

As to `O=c1[nH]c2sc3c(c2c(O)c1-c1ccccc1)CCCC3` [Compound 210, 4-Hydroxy-3-phenyl-5,6,7,8-tetrahydro-1-benzothieno[2,3-b]pyridin-2(1H)-one], the “Delfia: AMPK activity expressed in %” value in experiment [1] is reported as 286 % of control. In addition, the “α-Screen: AMPK activity expressed in %” value in experiment [2] is 176 % of control.

Consider `CCC(C)c1csc2[nH]c(=O)c(-c3ccccc3)c(O)c12` (centres unmarked) [Compound 209], for which the “Delfia: AMPK activity expressed in %” value in experiment [1] is recorded as 201 % of control. For the same molecule, the “α-Screen: AMPK activity expressed in %” value in experiment [2] was 156 % of control.

Regarding `Cc1c(Br)sc2[nH]c(=O)c(-c3ccccc3)c(O)c12` [Compound 202, 2-Bromo-4-hydroxy-3-methyl-5-phenyl-7H-thieno[2,3-b]pyridin-6-one], the “Delfia: AMPK activity expressed in %” value in experiment [1] is reported as 313 % of control. Further, in experiment [2], the “α-Screen: AMPK activity expressed in %” value was 322 % of control.

In the case of `CC(C)c1c(Cl)sc2[nH]c(=O)c(-c3ccccc3)c(O)c12` [Compound 204, 2-Chloro-4-hydroxy-3-isopropyl-5-phenyl-7H-thieno[2,3-b]pyridin-6-one], the “Delfia: AMPK activity expressed in %” value in experiment [1] is reported as 233 % of control. Further, the “α-Screen: AMPK activity expressed in %” value in experiment [2] was 181 % of control.

In the case of `NC(=O)c1ncn([C@@H]2O[C@H](CO)[C@@H](O)[C@H]2O)c1N` [AICAR], the “reduction of blood glucose” value in the experiment with ob/ob and db/db mice is 35%.

With `Cc1sc2[nH]c(=O)c(-c3ccccc3)c(O)c2c1C` [Compound 200, 4-Hydroxy-2,3-dimethyl-5-phenyl-7H-thieno[2,3-b]pyridin-6-one], the “Delfia: AMPK activity expressed in %” value in experiment [1] is 232 % of control. For the same molecule, in experiment [2], the “α-Screen: AMPK activity expressed in %” value is 154 % of control.

For the molecule `O=c1[nH]c2sc(Cl)c(C3CC3)c2c(O)c1-c1cccc(Oc2ccccc2)c1` [Compound 205, 2-chloro-3-cyclopropyl-4-hydroxy-5-(3-phenoxy-phenyl)-7H-thieno[2,3-b]pyridine-6-one], the “Delfia: AMPK activity expressed in %” value in experiment [1] is listed as 151 % of control. Further, the “α-Screen: AMPK activity expressed in %” value in experiment [2] is listed as 166 % of control.

As for `O=c1[nH]c2scc(C3CC3)c2c(O)c1-c1ccccc1` [Compound 208, 3-Cyclopropyl-4-hydroxy-5-phenyl-7H-thieno[2,3-b]pyridin-6-one], the “Delfia: AMPK activity expressed in %” value in experiment [1] is listed as 163 % of control. In addition, the “α-Screen: AMPK activity expressed in %” value in experiment [2] is recorded as 154 % of control.
